Measured values as given in ChEMBL document CHEMBL1149230, “Long chain amines and long chain ammonium salts as novel inhibitors of dynamin GTPase activity” (Bioorg Med Chem Lett, 2004).
Activity calls are given as the source filed them. No cut-off for these calls is given here.

Key:
Ovis aries [1] = organism: Ovis aries; test: Concentration required against Dynamin-1 GTPase activity of sheep brain at 3 uM; type: tissue-based
Ovis aries [2] = organism: Ovis aries; test: Compound was tested for its ability to inhibit Dynamin-1 GTPase activity of sheep brain; Increased activity; type: tissue-based
Ovis aries [3] = organism: Ovis aries; test: Compound was tested for its ability to inhibit Dynamin-1 GTPase activity of sheep brain at 30 uM; NE=No effect

inhibition (Ovis aries [1]): 70%
Concentration (Ovis aries [2]): 300 µM
Activity (Ovis aries [3]): inactive
SMILES: CCCC/C=C\C/C=C\C/C=C\C/C=C\CCCC(=O)OCC(O)CO (stereo not drawn)
